14 compounds from US12156880B2, “Heterocyclic RIP1 kinase inhibitors” (Rigel Pharmaceuticals, Inc., priority 2021, dated 2024) can be followed below.

The structures appear in SMILES notation.

In one assay the test system is U937 cells. Description: U937 cell necroptosis assay (TNFa + zVAD, CellTiter-Glo recovery). Format: cell-based. The settings on record: Homo sapiens, U-937, 18 h, TNFa 2 ng/mL + zVAD-fmk, read-out: U937 Zvad TNF CTG Recovery, U937, TNFa + zVAD (IC50). The protocol:
(§1) In this example, U937 and L929 cells were exposed to compounds of the present disclosure and a cell necroptosis assay was conducted to evaluate the compounds' activity against human RIP1 and murine RIP1.
(§2) U937 and L929 cells were obtained from the American Type Culture Collection (Manassas, VA, USA). Both cells were maintained in logarithmic growth phase in complete RPMI 1640 media (Sigma, ST Louis, MO, USA) supplemented with 10% fetal bovine serum (Sigma, ST Louis, MO, USA) at 37° C. with 5% CO2. For necroptosis assay, L929 cells were plated for 18 h in 100 μL/well medium at 10K cells/well in Costar 96-well black clear-bottom plates (Fisher Scientific, Hampton, NH, USA); U937 cells were plated on the day of the assay in 50 μL/well medium containing 60 uM zVAD-fmk (Lonza, Basel, Switzerland) at 50K cells/well. Medium from L929 cells were removed from the 96-well plates and replaced with 50 μL/well new medium containing 40 uM zVAD-fmk. Each compound of the present disclosure evaluated in this example was serially diluted in DMSO from 2.5 mM in 4-fold dilutions, and then diluted 1:125 in complete medium. 50 μL/well 2× of the compound was then added to the cells in the plates. The cells were pre-incubated with the compound for 1 hour at 37° C. with 5% CO2 and before addition of 10 μL/well 11×TNFa (Peprotech, Rocky Hill, NJ, USA) to give a final concentration of 2 ng/mL for TNFa. The relative amount of necroptosis cells was determined by luminescent using a Wallac Victor2 Luminometer (PerkinElmer, Waltham, MA, USA) and a CellTiter-Glo® Luminescent Cell Viability Reagent Assay (Promega, Madison, WI, USA) added per manufacturer instructions after 18 hours of TNFa stimulation at 37° C. with 5% CO2. This example establishes that embodiments of the compounds described herein have unexpectedly potent activity against human RIP1 and murine RIP1, which allows their assessment in in vivo mouse models of disease.
For orientation: ATP-based viability assays read luminescence as a measure of living cells.

A further assay deals with T1, RIPK1 (Homo sapiens, UniProt Q13546).
T1 sequence (Q13546 1-671): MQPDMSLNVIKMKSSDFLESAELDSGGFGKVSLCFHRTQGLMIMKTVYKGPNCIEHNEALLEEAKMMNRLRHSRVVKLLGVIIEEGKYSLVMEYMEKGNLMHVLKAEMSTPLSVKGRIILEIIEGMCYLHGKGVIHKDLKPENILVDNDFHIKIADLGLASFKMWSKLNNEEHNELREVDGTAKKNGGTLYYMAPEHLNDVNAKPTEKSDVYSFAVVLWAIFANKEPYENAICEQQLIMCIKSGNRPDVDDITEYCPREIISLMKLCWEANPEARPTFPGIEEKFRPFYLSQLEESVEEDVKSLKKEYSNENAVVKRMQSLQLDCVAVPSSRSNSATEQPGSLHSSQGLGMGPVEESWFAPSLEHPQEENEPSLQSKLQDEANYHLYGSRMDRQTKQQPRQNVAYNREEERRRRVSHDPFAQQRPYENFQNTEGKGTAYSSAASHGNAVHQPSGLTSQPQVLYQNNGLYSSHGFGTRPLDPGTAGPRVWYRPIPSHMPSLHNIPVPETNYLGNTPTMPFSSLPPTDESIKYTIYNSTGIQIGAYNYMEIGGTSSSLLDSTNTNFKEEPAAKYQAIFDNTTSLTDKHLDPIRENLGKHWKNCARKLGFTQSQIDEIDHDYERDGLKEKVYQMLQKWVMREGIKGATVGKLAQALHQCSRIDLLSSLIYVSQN
Kind of assay: RIPK1 ADP-Glo biochemical kinase assay. The note with it: read-out: RIPK1 ADP-Glo Kinase (IC50). The protocol: In this example, compounds of the disclosure were evaluated using a biochemical assay using the ADP-Glo™ technology.
ADP-Glo™ (Promega, Madison, WI, USA) reagents were thawed at ambient temperature. Kinase Detection Reagent was prepared by mixing kinase detection buffer with the lyophilized kinase detection substrate.
A […] stock volume of 5× Reaction Kinase Buffer was made by mixing 1000 μl of 1M MgCl2, 500 μl of 1M Tris-HCL pH7.4, 0.5 mg/ml (25 mg) of BSA, and 3475 μl of distilled H2O. A 3 ml 2× working stock volume of Reaction Kinase Buffer was made containing a final concentration of 100 μM DTT and 4 mM MnCl2.
Components of RIPK1 enzyme (Rigel Pharmaceuticals, South San Francisco, CA, USA) were thawed on ice. Diluted RIPK1 was prepared in 1× Kinase Reaction Buffer (diluted from 2× buffer) to 31 ng/well.
1.0 ul of diluted compound was added to a 384 well plate in duplicate. […] The final reaction volume was 5.0 μl.
The plate was quickly centrifuged and the reaction was incubated at 30° C. for 30 minutes. Adding 5 μl of ADP-Glo™ terminated the reaction. The plate was quickly centrifuged and the reaction was incubated at room temperature for 40 minutes. Kinase Detection Reagent was then added and incubated at room temperature for 30 minutes. The relative light unit (RLU) of kinase reaction was determined by luminescent (Luminescence 0.1 s) using a Wallac Victor2 Luminometer (PerkinElmer, Waltham, MA, USA).

Another assay deals with L929 cells. Kind of assay: L929 cell necroptosis assay (TNFa + zVAD, CellTiter-Glo recovery). Format: cell-based, murine. The settings on record: Mus musculus, L929, 18 h, TNFa 2 ng/mL + zVAD-fmk, read-out: L929-CTG-recovery, L929, TNFa + zVAD (IC50). The protocol: as §1, §2

For the compound `CN1C(=O)[C@@H](NC(=O)c2cc(Cc3cscn3)ccn2)COc2ccc(C#CC(C)(C)O)cc21` [I-77, (S)—N-(7-(3-hydroxy-3-methylbut-1-yn-1-yl)-5-methyl-4-oxo-2,3,4,5-tetrahydrobenzo[b][1,4]oxazepin-3-yl)-4-(thiazol-4-ylmethyl)picolinamide], the values for the IC50 with U937 cells, on RIPK1 and with L929 cells were 62.2 nM, 21.8 nM and 724 nM, respectively.

On to `CN1C(=O)[C@@H](NC(=O)n2cc(Cc3cccc(F)n3)cn2)COc2ccc(C#CC(C)(C)CO)cc21` [I-37, (S)-4-((6-Fluoropyridin-2-yl)methyl)-N-(7-(4-hydroxy-3,3-dimethylbut-1-yn-1-yl)-5-methyl-4-oxo-2,3,4,5-tetrahydrobenzo[b][1,4]oxazepin-3-yl)-1H-pyrazole-1-carboxamide], for which the results for the IC50 in the assay on U937 cells, at RIPK1 and in the assay on L929 cells were 4 nM, 16.2 nM and 697 nM, respectively.

Take `CN1C(=O)[C@@H](NC(=O)n2cc(Cc3cccnc3F)cn2)COc2ccc(C#CC3(O)CCC3)cc21` [I-48, (S)-4-((2-Fluoropyridin-3-yl)methyl)-N-(7-((1-hydroxycyclobutyl)ethynyl)-5-methyl-4-oxo-2,3,4,5-tetrahydrobenzo[b][1,4]oxazepin-3-yl)-1H-pyrazole-1-carboxamide]: the values for the IC50 with U937 cells, at RIPK1 and with L929 cells were 24.9 nM, 646 nM and 1470 nM, respectively.

As for `CN1C(=O)[C@@H](NC(=O)n2cc(Cc3cccnc3F)cn2)COc2ccc(C#CC(C)(C)O)cc21` [I-43, (S)-4-((2-Fluoropyridin-3-yl)methyl)-N-(7-(3-hydroxy-3-methylbut-1-yn-1-yl)-5-methyl-4-oxo-2,3,4,5-tetrahydrobenzo[b][1,4]oxazepin-3-yl)-1H-pyrazole-1-carboxamide], the results for the 50% inhibitory concentration (IC50) in the assay with U937 cells, at RIPK1 and in the assay with L929 cells were 17.9 nM, 17.7 nM and 2520 nM, respectively.

On to `CN1C(=O)[C@@H](NC(=O)n2cc(Cc3ccc(F)nc3F)cn2)COc2ccc(C#CC(C)(C)O)cc21` [I-50, (S)-4-((2,6-Difluoropyridin-3-yl)methyl)-N-(7-(3-hydroxy-3-methylbut-1-yn-1-yl)-5-methyl-4-oxo-2,3,4,5-tetrahydrobenzo[b][1,4]oxazepin-3-yl)-1H-pyrazole-1-carboxamide], for which the IC50 (as a rule, the midpoint of a concentration-inhibition curve) is 62.3 nM with U937 cells, 181 nM at RIPK1 and 17600 nM in the assay on L929 cells.

As to `Cc1ccc(Cc2ccnc(C(=O)N[C@H]3COc4ccc(C#CC(C)(C)O)cc4N(C)C3=O)c2)cn1` [I-72, (S)—N-(7-(3-hydroxy-3-methylbut-1-yn-1-yl)-5-methyl-4-oxo-2,3,4,5-tetrahydrobenzo[b][1,4]oxazepin-3-yl)-4-((6-methylpyridin-3-yl)methyl)picolinamide], the results for the IC50 with U937 cells, on RIPK1 and in the assay with L929 cells were 190 nM, 33.1 nM and 3010 nM, respectively.

As for `CN1C(=O)[C@@H](NC(=O)c2cc(Cc3cccnc3F)ccn2)COc2ccc(C#CC3(O)COC3)cc21` [I-26, (S)-4-((2-fluoropyridin-3-yl)methyl)-N-(7-((3-hydroxyoxetan-3-yl)ethynyl)-5-methyl-4-oxo-2,3,4,5-tetrahydrobenzo[b][1,4]oxazepin-3-yl)picolinamide], the IC50 in the assay on U937 cells was found to be 5.3 nM; at RIPK1, 35.5 nM; with L929 cells, 407 nM.

`Cc1nc(Cc2ccnc(C(=O)N[C@H]3COc4ccc(C#CC5(O)COC5)cc4N(C)C3=O)c2)cs1` [I-66, (S)—N-(7-((3-hydroxyoxetan-3-yl)ethynyl)-5-methyl-4-oxo-2,3,4,5-tetrahydrobenzo[b][1,4]oxazepin-3-yl)-4-((2-methylthiazol-4-yl)methyl)picolinamide]: the IC50 in the assay on U937 cells is 35.4 nM; on RIPK1 it was 15.4 nM; in the assay on L929 cells, 98 nM.

As to `CN1C(=O)[C@@H](NC(=O)c2cc(Oc3cccnc3F)ccn2)COc2ccc(C#CC3(O)CCC3)cc21` [I-83, (S)-4-((2-fluoropyridin-3-yl)oxy)-N-(7-((1-hydroxycyclobutyl)ethynyl)-5-methyl-4-oxo-2,3,4,5-tetrahydrobenzo[b][1,4]oxazepin-3-yl)picolinamide], the IC50 in the assay on U937 cells stood at 1.4 nM; at RIPK1, 19.1 nM; in the assay on L929 cells it was 218 nM.

Regarding `CN1C(=O)[C@@H](NC(=O)c2cc(Oc3cccnc3)ccn2)COc2ccc(C#CC(C)(C)C)cc21` [I-102, (S)—N-(7-(3,3-dimethylbut-1-yn-1-yl)-5-methyl-4-oxo-2,3,4,5-tetrahydrobenzo[b][1,4]oxazepin-3-yl)-4-(pyridin-3-yloxy)picolinamide], the IC50 in the assay on U937 cells was 7.5 nM; at RIPK1 it was 29.5 nM; with L929 cells it was 645 nM.

With `Cc1nc(Cc2ccnc(C(=O)N[C@H]3COc4ccc(C#CC5COC5)cc4N(C)C3=O)c2)cs1` [I-85, (S)—N-(5-methyl-7-(oxetan-3-ylethynyl)-4-oxo-2,3,4,5-tetrahydrobenzo[b][1,4]oxazepin-3-yl)-4-((2-methylthiazol-4-yl)methyl)picolinamide], the IC50 turned out to be 15.8 nM in the assay on U937 cells, 20.6 nM on RIPK1 and 252 nM with L929 cells.

In the case of `CN1C(=O)[C@@H](NC(=O)c2cc(Oc3cccnc3C#N)ccn2)COc2ccc(C#CC(C)(C)O)cc21` [I-91, (S)-4-((2-cyanopyridin-3-yl)oxy)-N-(7-(3-hydroxy-3-methylbut-1-yn-1-yl)-5-methyl-4-oxo-2,3,4,5-tetrahydrobenzo[b][1,4]oxazepin-3-yl)picolinamide], the IC50 in the assay on U937 cells was 290 nM; at RIPK1 it was 101 nM; in the assay with L929 cells, 9530 nM.

For the compound `CN1C(=O)[C@@H](NC(=O)c2cc(Oc3cnn(C)c3)ccn2)COc2ccc(C#CC(C)(C)O)cc21` [I-126, (S)—N-(7-(3-hydroxy-3-methylbut-1-yn-1-yl)-5-methyl-4-oxo-2,3,4,5-tetrahydrobenzo[b][1,4]oxazepin-3-yl)-4-((1-methyl-1H-pyrazol-4-yl)oxy)picolinamide], the half-inhibitory concentration (IC50) with U937 cells is 8.9 nM; at RIPK1, 15.3 nM; in the assay with L929 cells, 155 nM.

Consider `CN1C(=O)[C@@H](NC(=O)n2cc(Cc3ccc(F)nc3)cn2)COc2ccc(C#CC(C)(C)O)cc21` [I-16, (S)-4-((6-Fluoropyridin-3-yl)methyl)-N-(7-(3-hydroxy-3-methylbut-1-yn-1-yl)-5-methyl-4-oxo-2,3,4,5-tetrahydrobenzo[b][1,4]oxazepin-3-yl)-1H-pyrazole-1-carboxamide], for which the IC50 in the assay with U937 cells came out at 17.2 nM; on RIPK1, 37.9 nM; in the assay with L929 cells it was 2390 nM.
